IC50 data for 1 compound are collected here from US12213984B2, “Immunoregulatory agent” (KYUSHU UNIVERSITY, NATIONAL UNIVERSITY CORPORATION, priority 2015, dated 2025).

Holding throughout (assay type): biochemical
One assay deals with T1, Trio (Homo sapiens, UniProt O75962).
T1 construct: a DH-PH domain of the Trio protein and the Tiam protein; Histidine-SUMO (N); made in house; host or cells: E. coli Arctic express DE3 (pET28a)
Description: in-vitro GEF assay, Rac activation by Trio (Experimental Example 1). Here is the method:
(§1) The selectivity of the effect of inhibiting the GEF of DOCK2 by cholesterol 3-sulfate was examined. All of DOCK2, Trio, and Tiam are GEFs activating Rac. In the presence of serially diluted cholesterol 3-sulfate, the Rac activation ability of a DOCK2 protein, a Trio protein, and a Tiam protein was measured by in-vitro GEF assay. For the in-vitro GEF assay, a labeled GTP (trade name, “Bodipy-FL-GTP”, manufactured by Invitrogen) was used, because it has a property of increasing fluorescence intensity when binds to Rac by the action of GEF. […]
(§2) During the reaction, the change in the fluorescence intensity of Bodipy-FL-GPT was monitored using a spectrofluorometer Enspire manufactured by PerkinElmer Inc (excitation wavelength: 488 nm, emission wavelength: 514 nm). By calculation, the values obtained by the measurement were corrected such that the fluorescence intensity became 0 at a reaction starting point (0 second).
(§3) Then, by using software (trade name “GraphPad Prism 5”, manufactured by GraphPad Software Inc.), an approximation curve was created which is obtained in a case where the calculated corrected values are plotted on the y-axis and time (t) is plotted on the x-axis. […]

The target of assay [1] is T2, DOCK2DHR-2 (lobe B and lobe C of the DHR-2 domain of DOCK2) (Homo sapiens, UniProt Q92608).
T2 construct: polypeptide fragments corresponding to a DHR-2 domain including the lobe B and the lobe C of DOCK2; Histidine-SUMO (N); made in house; host or cells: E. coli Arctic express DE3 (pET28a); Rac in E. coli BL21 DE3 (pGEX-6P-1)
T2 sequence (Q92608 1196-1622): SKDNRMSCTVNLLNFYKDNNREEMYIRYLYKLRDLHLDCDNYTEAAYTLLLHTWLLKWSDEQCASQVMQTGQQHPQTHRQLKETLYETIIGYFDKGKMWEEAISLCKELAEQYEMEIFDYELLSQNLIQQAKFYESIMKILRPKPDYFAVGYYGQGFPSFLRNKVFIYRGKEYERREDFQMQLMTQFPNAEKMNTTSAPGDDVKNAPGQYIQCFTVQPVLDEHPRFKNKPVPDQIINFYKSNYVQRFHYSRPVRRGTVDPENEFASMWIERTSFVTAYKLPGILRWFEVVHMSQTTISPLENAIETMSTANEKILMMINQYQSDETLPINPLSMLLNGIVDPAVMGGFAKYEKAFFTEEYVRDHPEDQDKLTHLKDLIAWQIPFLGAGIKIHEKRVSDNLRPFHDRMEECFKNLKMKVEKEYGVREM
The experiment in a line: in-vitro GEF assay, Rac activation by DOCK2 DHR-2 domain with various steroid compounds (Experimental Example 2). Particulars: IC50 against the Rac activation by DOCK2DHR-2, Experimental Example 2, Table 1. On the procedure: An examination was performed using various steroid compounds to test their effects on the Rac activation induced by proteins composed of the lobe B and the lobe C of the DHR-2 domain of DOCK2.
As the steroid compounds, cholesterol 3-sulfate (hereinafter, referred to as “C3S” in some cases), cholesterol, cholesterol 3-acetate (hereinafter, referred to as “C3A” in some cases), pregnenolone 3-sulfate (hereinafter, referred to as “PREG3S” in some cases), dehydroepiandrosterone (hereinafter, referred to as “DHEA” in some cases), dehydroepiandrosterone 3-sulfate (hereinafter, referred to as “DHEA3S” in some cases), estrone 3-sulfate (hereinafter, referred to as “Estrone3S” in some cases), estriol 3-sulfate (hereinafter, referred to as “Estriol3S” in some cases), and estradiol 3-sulfate (hereinafter, referred to as “Estradiol3S” in some cases) were used.
More specifically, a DOCK2-DHR-2 domain protein prepared by the same method as described above was incubated for 20 minutes at room temperature in the presence of various steroid compounds at a predetermined concentration dissolved in DMSO or in the presence of DMSO alone (control) under the shielded condition from light, thereby preparing a pretreated substance of GEF. The concentration of DMSO was adjusted such that it became 3% (1% in the final reaction solution) in all samples. Then, by in-vitro GEF assay in which Rac and Bodipy-FL-GTP prepared by the same method as described above were used, Rac activation by the DHR-2 domain was measured.

The target in a further assay is T3, DOCK2 (Homo sapiens, UniProt Q92608).
T3 construct: polypeptide fragments corresponding to a DHR-2 domain including the lobe B and the lobe C of DOCK2; Histidine-SUMO (N); made in house; host or cells: E. coli Arctic express DE3 (pET28a); Rac in E. coli BL21 DE3 (pGEX-6P-1)
T3 sequence (Q92608 1196-1622): T2 sequence (Q92608 1196-1622)
Description: in-vitro GEF assay, Rac activation by DOCK2 (Experimental Example 1). Here is the method:
as §1, §2, §3

The structures appear in SMILES notation.

Usually IC50 stands for the concentration that gives 50% inhibition. A high value points to lower potency.

On to `CC(C)CCC[C@@H](C)[C@H]1CC[C@H]2[C@@H]3CC=C4C[C@@H](OS(=O)(=O)O)CC[C@]4(C)[C@H]3CC[C@]12C` [C3S, cholesterol 3-sulfate], for which the IC50 at Trio is greater than 300 µM; in assay [1], 2 µM; on DOCK2, 6.7 µM.
